Measured values published in patent US9072770B2, “Aqueous extracts of Anoectochilus spp. kinsenoside and pharmaceutical compositions useful for hepatoprotection” (CHINA MEDICAL UNIVERSITY, priority 2007, dated 2015).
Marks after values point to notes of the source that are not given here.

Tested on: BALB/c normal liver (BNL) cells
Assay: Hydrogen peroxide cytotoxicity assay in BNL cells
Assay type: cell-based, BALB/c mouse
Details: then H2O2 2 hours, control 0.69
Protocol: BALB/c normal liver (BNL) cells were purchased from Bioresources Collection and Research Center (Hsinchu, Taiwan). Cell lines were grown in DMEM (Dulbecco's modified Eagle's medium) with 50 IU/mL penicillin, 50 μg/mL streptomycin, 50 IU/mL amphotericin B and 10% fetal bovine serum. For cytotoxicity assays, cells (5×10^3 cells/well) were plated into 96-well culture plates and allowed to attach overnight. The medium was replaced with fresh medium (as control) or with various concentrations of AFEW, AFEW-1 or kinsenoside for 16 hours. The cells were then washed with PBS and further treated with various doses of hydrogen peroxide (0.125-4.00 μM) for 2 hours. After H2O2 cytotoxic treatment, the percentage of viable cells was determined using a CellTiter 96 Aqueous Non-Radioactive Cell Proliferation Assay kit (Promega, Madison, Wis., USA). Reagent solution (20 μt) was added to each well and incubated at 37° C. in humidified 5% CO2 for 1 hour. Then, the absorbance was measured at 490 nm using a 96-well plate reader (Multiskan Spectrum, Labsystem, Thermo Electron Corporation, Finland).
Data from in vivo experiments were treated by one-way analysis of variance and Dunnett's test was applied. The significance level was set at p[…]00.05. […]

O=C1C[C@@H](OC2OC(CO)C(O)C(O)C2O)CO1 (stereo partly drawn) [Kinsenoside, 3-(R)-3-β-D-glucopyranosyloxybutanolide]
H2O2 LD50 (95% confidence limits) (pretreatment 20 μg/mL for 16 hours): 0.81 (0.74-0.88)^a μM
H2O2 LD50 (95% confidence limits) (pretreatment 40 μg/mL for 16 hours): 1.17 (1.01-1.36)^a μM
